Assay results reported in ChEMBL document CHEMBL5338766, “X-ray Crystal Structure-Guided Discovery of Novel Indole Analogues as Colchicine-Binding Site Tubulin Inhibitors with Immune-Potentiating and Antitumor Effects against Melanoma” (J Med Chem, 2023).

Tests used:
[1] = tested on: MCF7; experiment: Antiproliferative activity against human MCF7 cells assessed as inhibition of cell proliferation incubated for 48 hrs by MTT assay; format: functional, cell-based; conditions: MCF7, 48 h
[2] = tested on: HepG2; experiment: Antiproliferative activity against human HepG2 cells assessed as inhibition of cell proliferation incubated for 48 hrs by MTT assay; format: functional, cell-based; conditions: HepG2, 48 h
[3] = tested on: B16-F10; experiment: Antiproliferative activity against mouse B16-F10 cells assessed as inhibition of cell proliferation incubated for 48 hrs by MTT assay; format: functional, cell-based; conditions: B16-F10, 48 h
[4] = tested on: HeLa; experiment: Antiproliferative activity against human HeLa cells assessed as inhibition of cell proliferation incubated for 48 hrs by MTT assay; format: functional, cell-based
[5] = Toxicity in C57 mouse implanted with mouse B16-F10 cells assessed as body weight loss at 5 mg/kg, ip administered every day for 14 days; format: organism-based; conditions: in vivo, 336 h, time 14 day
[6] = Toxicity in C57 mouse implanted with mouse B16-F10 cells assessed as pathological changes in liver at 5 mg/kg, ip administered every day for 14 days by H&E staining based microscopic analysis; format: organism-based; conditions: in vivo, 336 h, time 14 day
[7] = Resistance index, ratio of IC50 for antiproliferative activity against paclitaxel resistant human A549/TxR cells to IC50 for antiproliferative activity against parental human A549S cells; format: functional
[8] = tested on: A2780S; experiment: Antiproliferative activity against parental human A2780S cells assessed as inhibition of cell proliferation incubated for 48 hrs by MTT assay; format: functional, cell-based
[9] = tested on: A2780/Taxol; experiment: Antiproliferative activity against paclitaxel resistant human A2780/Taxol cells assessed as inhibition of cell proliferation incubated for 48 hrs by MTT assay; format: functional, cell-based
[10] = Antiproliferative activity against parental human A549S cells assessed as inhibition of cell proliferation incubated for 48 hrs by MTT assay; format: functional, cell-based
[11] = Toxicity in C57 mouse implanted with mouse B16-F10 cells assessed as pathological changes in kidney at 5 mg/kg, ip administered every day for 14 days by H&E staining based microscopic analysis; format: organism-based; conditions: in vivo, 336 h, time 14 day
[12] = tested on: B16-F10; experiment: Antitumor activity against mouse B16-F10 cells implanted in C57 mouse assessed as tumor growth inhibition at 5 mg/kg, ip administered every day for 14 days relative to control; format: functional; conditions: B16-F10, 336 h, time 14 day, read-out: TGI
[13] = Resistance index, ratio of IC50 for antiproliferative activity against paclitaxel resistant human A2780/Taxol cells to IC50 for antiproliferative activity against parental human A2780S cells; format: functional
[14] = Antiproliferative activity against paclitaxel resistant human A549/TxR cells assessed as inhibition of cell proliferation incubated for 48 hrs by MTT assay; format: functional, cell-based
[15] = Toxicity in C57 mouse implanted with mouse B16-F10 cells assessed as pathological changes in heart at 5 mg/kg, ip administered every day for 14 days by H&E staining based microscopic analysis; format: organism-based; conditions: in vivo, 336 h, time 14 day
[16] = tested on: B16-F10; experiment: Antitumor immunity in C57 mouse implanted with mouse B16-F10 cells assessed as increase in CD3+ CD8+ cytotoxic T cells in tumor at 5 mg/kg, ip administered every day for 14 days by flow cytometric analysis (reference value: 0.340%); format: functional; conditions: time 14 day
[17] = tested on: B16-F10; experiment: Antitumor immunity in C57 mouse implanted with mouse B16-F10 cells assessed as increase in CD3+ CD4+ helper T cells in tumor at 5 mg/kg, ip administered every day for 14 days by flow cytometric analysis (reference value: 0.332%); format: functional; conditions: time 14 day

Row | Structure (SMILES) | IC50 [1] [nM] | IC50 [2] [nM] | IC50 [3] [nM] | IC50 [4] [nM] | further results
1 | COc1cc(-c2n[nH]c3cnc(-c4cccc5c4ccn5C)cc23)cc(OC)c1OC | 135 | 82 | 197 | 154 | 
2 | COc1cc(-c2cccc3[nH]c(-c4cccc5c4ccn5C)nc23)cc(OC)c1OC |  | 15 |  |  | 
3 | COc1cc(OC)cc(-c2nccc3[nH]c(-c4cccc5c4ccn5C)nc23)c1 | 260 | 238 | 310 | 105 | 
4 | CC(=O)O[C@H]1C(=O)[C@@]2(C)[C@H]([C@H](OC(=O)c3ccccc3)[C@]3(O)C[C@H](OC(=O)[C@H](O)[C@@H](NC(=O)c4ccccc4)c4ccccc4)C(C)=C1C3(C)C)[C@]1(OC(C)=O)CO[C@@H]1C[C@@H]2O [PACLITAXEL] |  |  |  |  | Activity [5]: Non-Toxic; Activity [6]: Non-Toxic; Ratio IC50 [7]: 135.9; IC50 [8]: 2.7 nM; IC50 [9]: 2020 nM; IC50 [10]: 24.9 nM; Activity [11]: Non-Toxic; inhibition in vivo at 5 mg/kg [12]: 70.4%; Ratio IC50 [13]: 746.5; IC50 [14]: 3380 nM; Activity [15]: Non-Toxic
5 | Cn1ccc2c(-c3nc4c(-c5ccc6c(c5)OCCO6)nccc4[nH]3)cccc21 | 213 | 119 | 138 | 92 | 
6 | COc1cc(-c2nn(C(=O)OC(C)(C)C)c3ccc(-c4cccc5c4ccn5C)cc23)cc(OC)c1OC | 350 | 356 | 492 | 677 | 
7 | Cc1c(COc2cc3c(cc2Cl)CN(C(C)(C)C(=O)O)C(c2cccc(C#N)c2)O3)cccc1-c1ccccc1 (centres undefined) |  |  |  |  | Activity [5]: Non-Toxic; Activity [6]: Non-Toxic; Activity [16]: 2.27%; Activity [17]: 1.43%; Activity [11]: Non-Toxic; inhibition in vivo at 5 mg/kg [12]: 48.5%; Activity [15]: Non-Toxic
8 | CCn1ccc2ccc(-c3nc4c(-c5cc(OC)c(OC)c(OC)c5)nccc4[nH]3)cc21 | 602 | 509 | 631 | 818 | 
9 | COc1cc2c(c(OC)c1OC)-c1ccc(OC)c(=O)cc1[C@@H](NC(C)=O)CC2 [COLCHICINE] | 22 |  |  |  | IC50 [8]: 23.2 nM; IC50 [9]: 670 nM; IC50 [10]: 104 nM; IC50 [14]: 677 nM
10 | COc1cc(-c2nccc3[nH]c(-c4ccc5ccn(C)c5c4)nc23)cc(OC)c1OC | 30 | 18 | 33 | 45 | 
11 | CCn1ccc2c(-c3nc4c(-c5cc(OC)c(OC)c(OC)c5)nccc4[nH]3)cccc21 | 22 | 11 | 18 | 29 | 
12 | COc1cc(-c2nn(C(=O)OC(C)(C)C)c3cnc(-c4cccc5c4ccn5C)cc23)cc(OC)c1OC | 7660 | 4700 | 5170 | 5930 | 
13 | CCn1ccc2cc(-c3nc4c(-c5cc(OC)c(OC)c(OC)c5)nccc4[nH]3)ccc21 | 317 | 130 | 237 | 195 | 
14 | COc1cc(-c2n[nH]c3ccc(-c4cccc5c4ccn5C)cc23)cc(OC)c1OC | 45 | 30 | 66 | 48 | 
15 | COc1ccc(-c2nccc3[nH]c(-c4cccc5c4ccn5C)nc23)cc1OC | 699 | 256 | 199 | 453 | 
16 | COc1cc(-c2nn(C(=O)OC(C)(C)C)c3ccc(-c4cccc5c4ccn5C)nc23)cc(OC)c1OC | 277 | 210 | 386 | 581 | 

Second part, led by results:

Row | IC50 [1] [nM] | IC50 [2] [nM] | IC50 [3] [nM] | IC50 [4] [nM] | Structure (SMILES) | further results
17 | 28 | 6 | 21 | 40 | COc1cc(-c2n[nH]c3ccc(-c4cccc5c4ccn5C)nc23)cc(OC)c1OC | 
18 | 36 | 44 | 60 | 71 | COc1cc(-c2nccc3[nH]c(-c4ccc5c(ccn5C)c4)nc23)cc(OC)c1OC | 
19 | 861 | 248 | 1000 | 969 | COc1cc(-c2n[nH]c3cnc(-c4ccc5c(ccn5C)c4)cc23)cc(OC)c1OC | 
20 | 319 | 87 | 271 | 188 | COc1ccc(-c2ccc3[nH]nc(-c4cc(OC)c(OC)c(OC)c4)c3n2)cc1 | 
21 | 58 | 19 | 32 | 92 | COc1cc(-c2n[nH]c3ccc(-c4ccc(C)cc4)nc23)cc(OC)c1OC | 
22 | 35 | 16 | 43 | 48 | COc1cc(-c2n[nH]c3ccc(-c4ccc5c(ccn5C)c4)nc23)cc(OC)c1OC | 
23 | 957 | 115 | 683 | 742 | COc1cc(-c2n[nH]c3ccc(-c4ccccc4)nc23)cc(OC)c1OC | 
24 | 36 | 49 | 98 | 173 | COc1cc(-c2n[nH]c3ccc(-c4ccc5c(ccn5C)c4)cc23)cc(OC)c1OC | 
